Test results as given in ChEMBL document CHEMBL5665440, “ASAP - In vitro liver microsomal stability” (2024).
Values joined by “and” are separate entries in the source; they are usually repeats but may differ in a detail not shown here. Equal values may be shown once.

Experiments:
[1] = (§1) Human liver microsomal stability of compound in microsomal protein, PBS buffer pH 7.4, NADPH, glucose-6-phosphate and glucose-6-phosphate dehydrogenase media. Aliquotes were taken at 5 time points and after stopping the reaction, supernatants were analyzed using HPLC coupled with a tandem mass spectrometer. The elimination constant, half-life, and intrinsic clearance are determined as results using linear regression analysis.; type: ADME, microsomes, Microsome; settings: for half-life / microsomal CLint: liver microsomes
[2] = as §1, with “Mouse” for “Human”; type: ADME, microsomes, Microsome; settings: for half-life / microsomal CLint: liver microsomes; for Remaining / Remaining (without cofactor): microsomes
For Remaining (without cofactor) in this document: time not given here.
For Remaining in this document: time not given here.

SMILES: COCCNC(=O)[C@H](Nc1ccc2c(c1)CNC2)c1cc(Cl)cc(C2CC2)c1
- half-life [1]: 1.42 h
- microsomal CLint [1]: 19.7 µL/min/mg
- Remaining ([1]; microsomes): 68.563%
- Remaining (without cofactor) ([1]; microsomes): 103.817%
- half-life [2]: 2.38 h
- microsomal CLint [2]: 11.7 µL/min/mg
- Remaining [2]: 84.686%
- Remaining (without cofactor) [2]: 107.462%

SMILES: N#CCCNC(=O)[C@H](Nc1ccc2c(c1)CNC2)c1cc(Cl)cc(C2CC2)c1
- half-life [1]: > 2.89 h
- microsomal CLint [1]: < 10 µL/min/mg
- Remaining ([1]; microsomes): 90.394%
- Remaining (without cofactor) ([1]; microsomes): 113.364%
- half-life [2]: > 2.89 h
- microsomal CLint [2]: < 10 µL/min/mg
- Remaining [2]: 93.147%
- Remaining (without cofactor) [2]: 101.58%

SMILES: CNC(=O)[C@H](Nc1ccc2c(c1)CNC2)c1cc(Cl)cc(C2CC2)c1
- half-life [1]: > 2.89 h
- microsomal CLint [1]: < 10 µL/min/mg
- Remaining ([1]; microsomes): 90.859%
- Remaining (without cofactor) ([1]; microsomes): 112.656%
- half-life [2]: > 2.89 h
- microsomal CLint [2]: < 10 µL/min/mg
- Remaining [2]: 87.863%
- Remaining (without cofactor) [2]: 93.167%

SMILES: CC(C)NC(=O)[C@H](Nc1ccc2c(c1)CNC2)c1cc(Cl)cc2[nH]c(-c3ccccc3)nc12
- CLint ([1]; microsomes): 23.218 µL/min/mg and < 10 µL/min/mg
- Remaining ([1]; microsomes): 67.537% and 102.526%
- Remaining (without cofactor) ([1]; microsomes): 101.395% and 117.42%
- T1/2 ([1]; microsomes): 1.199 h and > 2.888 h
- half-life [2]: 2.52 h
- microsomal CLint [2]: 11 µL/min/mg
- Remaining [2]: 84%
- Remaining (without cofactor) [2]: 98.417%

SMILES: CSc1cc2c(cc1NC(=O)c1cc(F)cc3[nH]ncc13)CNC2
- half-life [1]: > 2.89 h
- microsomal CLint [1]: < 10 µL/min/mg
- Remaining ([1]; microsomes): 88.673%
- Remaining (without cofactor) ([1]; microsomes): 103.344%
- half-life [2]: 0.212 h
- microsomal CLint [2]: 131 µL/min/mg
- Remaining [2]: 11.381%
- Remaining (without cofactor) [2]: 93.133%

SMILES: O=C(NCC(F)F)[C@H](Nc1ccc2c(c1)CNC2)c1cc(Br)cc2nc[nH]c12
- half-life [1]: > 2.89 h
- microsomal CLint [1]: < 10 µL/min/mg
- Remaining ([1]; microsomes): 100.118%
- Remaining (without cofactor) ([1]; microsomes): 106.151%
- half-life [2]: > 2.89 h
- microsomal CLint [2]: < 10 µL/min/mg
- Remaining [2]: 93.302%
- Remaining (without cofactor) [2]: 93.905%

SMILES: O=C(Nc1ccc2c(c1)CNC2)c1ccc2[nH]cc(C3CCNCC3)c2c1
- half-life [1]: > 2.89 h
- microsomal CLint [1]: < 10 µL/min/mg
- Remaining ([1]; microsomes): 86.755%
- Remaining (without cofactor) ([1]; microsomes): 110.939%
- half-life [2]: > 2.89 h
- microsomal CLint [2]: < 10 µL/min/mg
- Remaining [2]: 86.057%
- Remaining (without cofactor) [2]: 94.216%

SMILES: O=C(NCCCF)[C@H](Nc1ccc2c(c1)CNC2)c1cc(Cl)cc(C2CC2)c1
- half-life [1]: 1.75 h
- microsomal CLint [1]: 15.9 µL/min/mg
- Remaining ([1]; microsomes): 77.399%
- Remaining (without cofactor) ([1]; microsomes): 95.756%
- half-life [2]: 1.6 h
- microsomal CLint [2]: 17.4 µL/min/mg
- Remaining [2]: 76.547%
- Remaining (without cofactor) [2]: 97.886%

SMILES: CO[C@H]1C[C@H](n2ncc3c(C(=O)Nc4ccc5c(c4)CNC5)cc(Cl)cc32)C1
- half-life [1]: > 2.89 h
- microsomal CLint [1]: < 10 µL/min/mg
- Remaining ([1]; microsomes): 104.617%
- Remaining (without cofactor) ([1]; microsomes): 107.995%
- half-life [2]: > 2.89 h
- microsomal CLint [2]: < 10 µL/min/mg
- Remaining [2]: 91.321%
- Remaining (without cofactor) [2]: 100.159%

SMILES: O=C(NCC(F)F)[C@H](Nc1cc2c(cc1Br)CNC2)c1cc(Cl)cc(C2CC2)c1
- half-life [1]: 1.08 h
- microsomal CLint [1]: 25.9 µL/min/mg
- Remaining ([1]; microsomes): 67.209%
- Remaining (without cofactor) ([1]; microsomes): 94.723%
- half-life [2]: 1.21 h
- microsomal CLint [2]: 22.9 µL/min/mg
- Remaining [2]: 69.524%
- Remaining (without cofactor) [2]: 97.036%

SMILES: CNC(=O)c1cc(Br)cc([C@H](Nc2ccc3c(c2)CNC3)C(=O)NCC(F)F)c1
- half-life [1]: > 2.89 h
- microsomal CLint [1]: < 10 µL/min/mg
- Remaining ([1]; microsomes): 96.629%
- Remaining (without cofactor) ([1]; microsomes): 106.229%
- half-life [2]: > 2.89 h
- microsomal CLint [2]: < 10 µL/min/mg
- Remaining [2]: 92.112%
- Remaining (without cofactor) [2]: 95.032%

SMILES: COc1ccc(-c2nc3c(C(=O)Nc4ccc5c(c4)CNC5)cc(F)cc3[nH]2)nn1
- half-life [1]: > 2.89 h
- microsomal CLint [1]: < 10 µL/min/mg
- Remaining ([1]; microsomes): 87.708%
- Remaining (without cofactor) ([1]; microsomes): 99.462%
- half-life [2]: 1.64 h
- microsomal CLint [2]: 16.9 µL/min/mg
- Remaining [2]: 73.587%
- Remaining (without cofactor) [2]: 92.469%

SMILES: CCCCNC(=O)[C@H](Nc1ccc2c(c1)CNC2)c1cc(Cl)cc(C2CC2)c1
- half-life [1]: 1.72 h
- microsomal CLint [1]: 16.2 µL/min/mg
- Remaining ([1]; microsomes): 75.607%
- Remaining (without cofactor) ([1]; microsomes): 97.272%
- half-life [2]: 1.43 h
- microsomal CLint [2]: 19.5 µL/min/mg
- Remaining [2]: 73.231%
- Remaining (without cofactor) [2]: 102.386%

SMILES: COc1cc(Cl)cc([C@H](Nc2ccc3c(c2)CNC3)C(=O)NCC(F)F)c1
- half-life [1]: > 2.89 h
- microsomal CLint [1]: < 10 µL/min/mg
- Remaining ([1]; microsomes): 91.954%
- Remaining (without cofactor) ([1]; microsomes): 107.924%
- half-life [2]: 2.16 h
- microsomal CLint [2]: 12.9 µL/min/mg
- Remaining [2]: 81.928%
- Remaining (without cofactor) [2]: 96.342%

SMILES: O=C(NCC(F)F)[C@H](Nc1cnc2c(c1)CNC2)c1cc(Cl)cc(C2CC2)c1
- half-life [1]: > 2.89 h
- microsomal CLint [1]: < 10 µL/min/mg
- Remaining ([1]; microsomes): 91.952%
- Remaining (without cofactor) ([1]; microsomes): 110.51%
- half-life [2]: > 2.89 h
- microsomal CLint [2]: < 10 µL/min/mg
- Remaining [2]: 87.443%
- Remaining (without cofactor) [2]: 105.088%

SMILES: Cc1cc([C@H](Nc2ccc3c(c2)CNC3)C(=O)NCC(F)F)cc(C(F)(F)F)c1
- half-life [1]: > 2.89 h
- microsomal CLint [1]: < 10 µL/min/mg
- Remaining ([1]; microsomes): 89.032%
- Remaining (without cofactor) ([1]; microsomes): 105.687%
- half-life [2]: 2.49 h
- microsomal CLint [2]: 11.2 µL/min/mg
- Remaining [2]: 85.983%
- Remaining (without cofactor) [2]: 88.687%

SMILES: O=C(NCC(F)F)[C@H](Nc1ccc2c(c1)CNC2)c1cc(Cl)cc2c1CCC2
- half-life [1]: 1.99 h
- microsomal CLint [1]: 14 µL/min/mg
- Remaining ([1]; microsomes): 80.194%
- Remaining (without cofactor) ([1]; microsomes): 105.323%
- half-life [2]: 0.882 h
- microsomal CLint [2]: 31.6 µL/min/mg
- Remaining [2]: 60.623%
- Remaining (without cofactor) [2]: 103.851%

SMILES: Cn1ncc2c(C(=O)Nc3ccc4c(c3)CNC4)cc(Cl)cc21
- half-life [1]: > 2.89 h
- microsomal CLint [1]: < 10 µL/min/mg
- Remaining ([1]; microsomes): 91.353%
- Remaining (without cofactor) ([1]; microsomes): 101.456%
- half-life [2]: 1.09 h
- microsomal CLint [2]: 25.5 µL/min/mg
- Remaining [2]: 63.701%
- Remaining (without cofactor) [2]: 92.242%

SMILES: COc1cc(C#N)cc([C@H](Nc2ccc3c(c2)CNC3)C(=O)NCC(F)F)c1
- half-life [1]: > 2.89 h
- microsomal CLint [1]: < 10 µL/min/mg
- Remaining ([1]; microsomes): 93.073%
- Remaining (without cofactor) ([1]; microsomes): 104.062%
- half-life [2]: > 2.89 h
- microsomal CLint [2]: < 10 µL/min/mg
- Remaining [2]: 90.033%
- Remaining (without cofactor) [2]: 104.77%

SMILES: Nc1ccncc1-c1cc(F)cc(C(=O)Nc2ccc3c(c2)CNC3)c1
- half-life [1]: > 2.89 h
- microsomal CLint [1]: < 10 µL/min/mg
- Remaining ([1]; microsomes): 84.663%
- Remaining (without cofactor) ([1]; microsomes): 102.026%
- half-life [2]: > 2.89 h
- microsomal CLint [2]: < 10 µL/min/mg
- Remaining [2]: 87.356%
- Remaining (without cofactor) [2]: 106.991%
